Results reported in patent US12612424B2, “HPK1 inhibitors and uses thereof” (Regor Pharmaceuticals, Inc., priority 2019, dated 2026).

System: Human Pan T Cell (IL-2 release)
Test: IL2 released by human pan T cell upon anti-CD3/anti-CD28 stimulation (ELISA)
Type: cell-based
Details: human pan T cells; for maximal fold induction / EC50 / EC (2-fold response): Homo sapiens, T-cell; for maximal fold induction / EC (2-fold response): 48 h; for maximal fold induction: response of IL-2 over DMSO control, anti-CD3/anti-CD28, 48 hours, ELISA, read-out: IL-2 Max Fold Response; for EC50: IL-2 response, calculated with GraphPad Prism; for EC2x (nM) / EC (2-fold response): concentration of compound that gives 200% IL-2 response (2 folds) over DMSO control
Description: For example, Example 5 describes such a functional assay for determining the effect of an HPK1 inhibitor on IL-2 & IFN-γ release upon stimulation of Pan T cells. The secreted IL-2 & IFN-γ can be measured/quantified by standard ELISA assay. Briefly, pan T cells can be isolated from peripheral blood (PB) mononuclear cells (MNCs), or PBMC, using commercially available kits, such as MACS (Miltenyl Biotec) Pan T isolation kit (Cat. No. 130-096-535). Primary human pan-T cells include CD4 and CD8 T cells as well as some gamma/delta T cell subsets. The pan-T cells can be isolated using the negative immunomagnetic separation technique without the use of columns.
Isolated pan-T cells can be dispensed into 96-well plates at 100,000 cells/well, and stimulated with immobilized anti-CD3 antibody and soluable anti-CD28 antibody, or PMA/Ionomycin as the positive control (or culture media as the negative control). Different concentrations of test compounds can be added to the cells to assess the compound effect on cytokine secretion following TCR-stimulation/CD28 co-stimulation. Stimulated cells are incubated for 2 more days, before the supernatant (containing secreted cytokines by pan-T cells) is collected from each well for ELISA assay and quantitation of IL-2 and IFN-γ.
Biology Example 8 Compound Efficacy Study on IL2 & IFN-γ Released by Human Pan T Cell
This example is an assay method that can be used to determine compound effects on IL2 & IFN-γ release using pan T cells and ELISA assay format.
3. Procedures Procedures for Pan T isolation and Reagent preparation (Day 0): 1. Cell Growth Medium: • RPMI1640: ATCC, Cat #30-2001 • 10% FBS: Gibco, Cat #10099141 • 1% Pen-Strep: Gibco, Cat #15140122 • 1% Non-essential amino: Gibco, Cat #11140050 • Beta-Mercaptoethanol: Gibco, Cat #21985023 2. Pan T Isolation Buffer Preparation:
Prepare a solution containing phosphate-buffered saline (PBS), pH 7.2, 0.5% bovine serum albumin (BSA), and 2 mM EDTA by diluting MACS® BSA Stock Solution (#130-091-376) 20 times with autoMACS® Rinsing Solution. Keep buffer at 4° C. Degas buffer before use, as air bubbles could block the column.
3. Thawing of Frozen PBMC • 1) Pre-heat medium at 37° C. water bath. • 2) Rapidly thaw cells in 37° C. water bath. • 3) Add the pre-warmed medium into 15 mL tube. Transfer cells to the tube. • 4) 300×g centrifuge for 8 min. (centrifuge increase 0, decrease 0). • 5) Wash the PBMC using Rinsing buffer. • 6) Centrifuge PBMC at 300×g for 8 min, wash it twice (centrifuge increase 9, decrease 1). • 7) Resuspend the cells with Pan T cells isolation buffer and count cells number. 4. Pan T Cells Isolation: Cell Staining with Microbead Cocktail • 1) Prepare cells and determine cell number. Filter cells by 70 μm cell strainer. • 2) Resuspend cell pellet in 40 μL of buffer per 10^7 total cells. • 3) Add 10 μL of Pan T Cell Biotin-Antibody Cocktail per 10^7 total cells. • 4) Mix well and incubate for 10 minutes in the refrigerator (ice). • 5) Add 30 μL of buffer per 10^7 total cells. • 6) Add 20 μL of Pan T Cell MicroBead Cocktail per 10^7 total cells. • 7) Mix well and incubate for 15 minutes in the refrigerator (ice). • 8) Proceed to subsequent magnetic cell separation. • Note: a. Work fast, keep cells cold, and use pre-cooled solutions (2-8° C.). b. Volumes for magnetic labeling given are for up to 10′ total cells. When working with fewer cells, use the same volumes as indicated. c. When working with higher cell numbers, scale up all reagent volumes and total volumes accordingly. d. For optimal performance it is important to obtain a single-cell suspension before magnetic labeling. Subsequent Manual Cell Separation: • 1) Place LS Column in the magnetic field of a suitable MACS Separator. For details refer to the respective MACS Column data sheet. • 2) Prepare column by rinsing with 3 mL of buffer. • 3) Apply cell suspension onto the column. Collect flow-through, which represents the enriched T cells. • 4) Wash column with 5 mL of buffer. […]

Row | SMILES | maximal fold induction | EC50 [nM] | EC2x (nM) | EC (2-fold response) [µM]
1 | COc1cc2c(cc1Nc1ncc(Cl)c(N3CCc4ccc(C(F)F)cc43)n1)CN(C)CC2 [Example 91, N-(5-chloro-4-(6-(difluoromethyl)indolin-1-yl)pyrimidin-2-yl)-6-methoxy-2-methyl-1,2,3,4-tetrahydroisoquinolin-7-amine] | < 2 |  |  | 
2 | COc1cc2c(cc1Nc1ncc(Cl)c(N3CCc4c(C(F)F)cccc43)n1)CN(C)CC2 [Example 92, N-(5-chloro-4-(4-(difluoromethyl)indolin-1-yl)pyrimidin-2-yl)-6-methoxy-2-methyl-1,2,3,4-tetrahydroisoquinolin-7-amine] | < 2 |  |  | 
3 | COc1cc2c(cc1Nc1ncc(Cl)c(-n3cc(C4(O)COC4)c4ccccc43)n1)CN(C)CC2 [Example 93] | < 2 |  |  | 
4 | CNC(=O)C1CN(c2nc(Nc3cc4c(cc3OC)CCN(C)C4)ncc2Cl)c2ccccc21 (centres unmarked) [Example 97, 1-(5-Chloro-2-((6-methoxy-2-methyl-1,2,3,4-tetrahydroisoquinolin-7-yl)amino)pyrimidin-4-yl)-N-methylindoline-3-carboxamide] | > 2 | 100 to 500 | ++ (“++”, for higher values than “+++” but less than or equal to 1 μM) | 
5 | COc1cc2c(cc1Nc1ncc(Cl)c(N3CC(C(=O)NS(C)(=O)=O)c4ccccc43)n1)CN(C)CC2 (centres unmarked) [Example 98] | < 2 |  |  | 
6 | COc1cc2c(cc1Nc1ncc(Cl)c(N3CC(C#N)c4ccccc43)n1)CN(C)CC2 (centres unmarked) [Example 99, 1-(5-Chloro-2-((6-methoxy-2-methyl-1,2,3,4-tetrahydroisoquinolin-7-yl)amino)pyrimidin-4-yl)indoline-3-carbonitrile] | < 2 |  |  | 
7 | COc1cc2c(cc1Nc1ncc(Cl)c(N3CC(c4nn[nH]n4)c4ccccc43)n1)CN(C)CC2 (centres unmarked) [Example 100, N-(4-(3-(2H-tetrazol-5-yl)indolin-1-yl)-5-chloropyrimidin-2-yl)-6-methoxy-2-methyl-1,2,3,4-tetrahydroisoquinolin-7-amine] | > 2 | > 1000 | + (“+”, for greater than 1 μM) | 
8 | COc1cc2c(cc1Nc1ncc(Cl)c(N3CC(C(=O)NO)c4ccccc43)n1)CN(C)CC2 (centres unmarked) [Example 101, 1-(5-Chloro-2-((6-methoxy-2-methyl-1,2,3,4-tetrahydroisoquinolin-7-yl)amino)pyrimidin-4-yl)-N-hydroxyindoline-3-carboxamide] | < 2 |  |  | 
9 | COc1cc2c(cc1Nc1ncc(Cl)c(N3CC(C(=O)N(C)O)c4ccccc43)n1)CN(C)CC2 (centres unmarked) [Example 102] | < 2 |  |  | 
10 | CONC(=O)C1CN(c2nc(Nc3cc4c(cc3OC)CCN(C)C4)ncc2Cl)c2ccccc21 (centres unmarked) [Example 103, 1-(5-Chloro-2-((6-methoxy-2-methyl-1,2,3,4-tetrahydroisoquinolin-7-yl)amino)pyrimidin-4-yl)-N-methoxyindoline-3-carboxamide] | < 2 |  |  | 
11 | COc1cc2c(cc1Nc1ncc(Cl)c(N3CC(C(=O)O)c4cc(F)ccc43)n1)CN(C)CC2 (centres unmarked) [Example 104] | > 2 | 100 to 500 |  | 0.1 to 0.5
12 | COc1cc2c(cc1Nc1ncc(Cl)c(N3CC(C(=O)O)c4ccc(F)cc43)n1)CN(C)CC2 (centres unmarked) [Example 105] | > 2 | ≤ 100 |  | 0.1 to 0.5
13 | COc1ccc2c(c1)N(c1nc(Nc3cc4c(cc3OC)CCN(C)C4)ncc1Cl)CC2C(=O)O (centres unmarked) [Example 107, 1-(5-Chloro-2-((6-methoxy-2-methyl-1,2,3,4-tetrahydroisoquinolin-7-yl)amino)pyrimidin-4-yl)-6-methoxyindoline-3-carboxylic acid] | < 2 |  |  | 
14 | COc1cc2c(cc1Nc1ncc(Cl)c(N3CC(C(=O)O)c4c(OC)cccc43)n1)CN(C)CC2 (centres unmarked) [Example 108, 1-(5-Chloro-2-((6-methoxy-2-methyl-1,2,3,4-tetrahydroisoquinolin-7-yl)amino)pyrimidin-4-yl)-4-methoxyindoline-3-carboxylic acid] | < 2 | > 1000 |  | 
15 | COc1cc2c(cc1Nc1ncc(F)c(N3CC(C(=O)O)c4ccccc43)n1)CN(C)CC2 (centres unmarked) [Example 109, 1-(5-Fluoro-2-((6-methoxy-2-methyl-1,2,3,4-tetrahydroisoquinolin-7-yl)amino)pyrimidin-4-yl)indoline-3-carboxylic acid] | > 2 | 100 to 500 | ++ (“++”, for higher values than “+++” but less than or equal to 1 μM) | 
16 | COc1cc2c(cc1Nc1ncc(C#N)c(N3CC(C(=O)O)c4ccccc43)n1)CN(C)CC2 (centres unmarked) [Example 110, 1-(5-Cyano-2-((6-methoxy-2-methyl-1,2,3,4-tetrahydroisoquinolin-7-yl)amino)pyrimidin-4-yl)indoline-3-carboxylic acid] | < 2 |  |  | 
17 | COC(=O)C1CN(c2nc(Nc3cc4c(cc3OC)CCN(C)C4)ncc2C(F)F)c2ccccc21 (centres unmarked) [Example 112] | < 2 |  |  | 
18 | COc1cc2c(cc1Nc1ncc(Cl)c(-n3nc(C(=O)O)c4ccccc43)n1)CN(C)CC2 [Example 113] | < 2 | > 1000 |  | 
19 | COC(=O)C1CN(c2nc(Nc3cc4c(cc3OC)CCN(C)C4)ncc2Cl)c2ccccc21 (centres unmarked) [Example 115, Methyl 1-(5-chloro-2-((6-methoxy-2-methyl-1,2,3,4-tetrahydroisoquinolin-7-yl)amino)pyrimidin-4-yl)indoline-3-carboxylate] | > 2 | 100 to 500 |  | 0.1 to 0.5
20 | COC(=O)C1(C)CN(c2nc(Nc3cc4c(cc3OC)CCN(C)C4)ncc2Cl)c2ccccc21 (centres unmarked) [Example 116] | > 2 | 500 to 1000 | ++ (“++”, for higher values than “+++” but less than or equal to 1 μM) | 
21 | COc1cc2c(cc1Nc1ncc(Cl)c(N3CC(C)(C(N)=O)c4ccccc43)n1)CN(C)CC2 (centres unmarked) [Example 120, 1-(5-Chloro-2-((6-methoxy-2-methyl-1,2,3,4-tetrahydroisoquinolin-7-yl)amino)pyrimidin-4-yl)-3-methylindoline-3-carboxamide] | < 2 |  |  | 
22 | COc1cc2c(cc1Nc1ncc(Cl)c(N3CC(C)(C#N)c4ccccc43)n1)CN(C)CC2 (centres unmarked) [Example 121, 1-(5-Chloro-2-((6-methoxy-2-methyl-1,2,3,4-tetrahydroisoquinolin-7-yl)amino)pyrimidin-4-yl)-3-methylindoline-3-carbonitrile] | < 2 |  |  | 
23 | CNC(=O)C1(C)CN(c2nc(Nc3cc4c(cc3OC)CCN(C)C4)ncc2Cl)c2ccccc21 (centres unmarked) [Example 122] | < 2 |  |  | 
24 | COc1cc2c(cc1Nc1ncc(Cl)c(N3CC(C)(CO)c4ccccc43)n1)CN(C)CC2 (centres unmarked) [Example 123] | < 2 | 100 to 500 |  | 
25 | COc1cc2c(cc1Nc1ncc(Cl)c(N3CC(C)(C(=O)O)c4cc(F)ccc43)n1)CN(C)CC2 (centres unmarked) [Example 125] | > 2 | ≤ 100 |  | ≤ 0.1
26 | COc1cc2c(cc1Nc1ncc(Cl)c(N3CC(C)(C(=O)O)c4ccc(F)cc43)n1)CN(C)CC2 (centres unmarked) [Example 126] | > 2 | ≤ 100 |  | ≤ 0.1
